The text below walks through data of publication PMC10989010, “A panel of janus kinase inhibitors identified with anti-inflammatory effects protect mice from lethal influenza virus infection” (Antimicrobial Agents and Chemotherapy, 2024).

Counter-ions that a name gives are not always drawn.

The conditions of series [1]: stated as reason for selection; no test or reference printed; cited from earlier work.
The subject of the next series is lung tissues. Description: Lung tissues histopathology (HE staining) of infected mice. To be noted: 300 TCID50; 20 mg/kg/d; day 7 p.i. The class given is in vivo. How it is done:
The H&E staining experiments were performed according to the previous report ([46]). Briefly, all the mouse lung tissues were fixed in 4% paraformaldehyde overnight, embedded in paraffin, and cut into 4 µm sections. The sections were stained with hematoxylin solution, treated with hematoxylin differentiation solution and hematoxylin Scott’s tap water bluing, and rinsed with tap water. The sections were dehydrated in 85% ethanol for 5 minutes, followed by 5 minutes in 95% ethanol, and stained with eosin dye for 5 minutes. After dehydration, all the sections were sealed with neutral gum. Each section was examined under the microscope. The slides were randomly read and reviewed for tissue damage, necrosis, and inflammatory cell infiltration.

The subject of series [2] is neutrophils and macrophages. Description: Flow cytometry of BALF cells of infected mice. As to conditions: 20 mg/kg/d, day 7 p.i. Format: in vivo. How it is done: The mouse was euthanized and affixed onto a surgical plate, followed by disinfection of the neck using 70% ethanol. An incision was made on the neck skin using scissors to expose the trachea. Subsequently, a 0.2 cm incision was created on the trachea with surgical scissors, and a gavage needle was carefully inserted into it. The trachea was tied around the needle using cotton thread to secure the needle in place. Then, sterile PBS solution loaded in a 1 mL syringe was gently injected into the lung. The thorax of the mouse was massaged to facilitate even distribution of the solution before careful aspiration. Following the removal of the syringe from the needle, lavage fluid obtained from this process was transferred to an ice-cooled 1.5 mL tube for further processing or stored at −80℃ for subsequent analysis. Finally, resuspension and staining of cell pellet obtained after centrifugation of lavage fluid for 10 minutes at 1,000 × g and 4℃ were performed for subsequent analysis using flow cytometry ([45]).
BALF samples were washed with FACS (fluorescence-activated cell sorting) buffer (2% BSA in PBS), followed by red blood cell lysis using Red Cell Lysis Buffer (Tiangen, Beijing, China). For the surface staining, cells were stained with the following fluorochrome-labeled antibodies (Biolegend, San Diego, USA): PE-Cy7-conjugated Ly6C (clone HK1.4, dilution 1:200), PE-conjugated CD11b (clone M1/70, dilution 1: 200), APC-conjugated Ly6G (clone 1A8, dilution 1: 200), and FITC-conjugated CD11c (clone N418, dilution 1: 100). Cells were washed with PBS twice and counterstained with 7AAD (Biolegend, San Diego, USA) to differentiate apoptotic and dead cells, then analyzed using a BD FACSVerse Cell Analyzer (BD, New Jersey, USA).

Consider `CNS(=O)(=O)C[C@H]1CC[C@H](N(C)c2ncnc3[nH]ccc23)CC1` [Oclacitinib maleate], for which, in series [1], the water solubility result is reported as “high water solubility”. For the same molecule, the “lung histopathology (HE staining)” value in the series with lung tissues is given as “remained primarily intact, with fewer inflammatory cells present”. For the same molecule, in series [2] (BALF flow cytometry, versus placebo), the “number of neutrophils and macrophages in the lungs” value was “reduce the number of neutrophils and macrophages”. In series [2] (Fig 4B, 300 TCID50), the “Ly6G- (flow cytometry gate, BALF)” value was 81.6; the “Macrophage (flow cytometry gate, BALF)” value turned out to be 8.05; the “Neurophil (flow cytometry gate, BALF)” value is reported as 15.2.
